From patent US7049332B2, “HIV inhibiting N-aminoimidazole derivatives” (K. U. Leuven Research & Development, priority 2001, dated 2006)
In brackets after ≈: the same amount, converted by molar mass.

Tested on: not given
Test: not given
Settings: not given

Point of comparison: `Cc1ncn(Nc2cccc(Cl)c2)c1-c1cccc(Cl)c1` [Compound 13.03, 5-(3-Chlorophenyl)-1-(3-chlorophenylamino)-4-methyl-1H-imidazole], melting point 168 °C. Against it:
- CCc1[nH]c(=S)n(Nc2cccc(C)c2)c1-c1ccccc1 [Compound 9.25, 2,3-Dihydro-4-ethyl-1-(3-methylphenylamino)-5-phenyl-1H-imidazole-2-thione] — higher, 202 to 204 °C
- Cc1cc(C)cc(Nn2c(-c3ccccc3)c(C)[nH]c2=S)c1 [Compound 9.30, 2,3-Dihydro-1-(3,5-dimethylphenylamino)-4-methyl-5-phenyl-1H-imidazole-2-thione] — higher, 240 to 242 °C
- Cc1ncn(Nc2cccc(Cl)c2)c1-c1ccccc1 [Compound 13.01, 1-(3-Chlorophenylamino)-4-methyl-5-phenyl-1H-imidazole] — higher, 218 °C
- Cc1ncn(Nc2cccc(Cl)c2)c1-c1cccc(Br)c1 [Compound 13.02, 5-(3-Bromophenyl)-1-(3-chlorophenylamino)-4-methyl-1H-imidazole] — lower, 164 °C
- Cc1cccc(Nn2cnc(C)c2-c2ccccc2)c1 [Compound 13.09, 4-Methyl-1-(3-methylphenylamino)-5-phenyl-1H-imidazole] — lower, 159 °C

Tested on: MT-4 cells
Test: Cytotoxicity in mock-infected MT-4 cells (MTT)
Assay type: cell-based
Settings: not given
Procedure: (§1) A rapid and automated assay procedure was used for the in vitro evaluation of anti-HIV agents. An HTLV-1 transformed T4-cell line MT-4, which was previously shown to be highly susceptible to and permissive for HIV infection, served as the target cell line. Inhibition of the HIV-induced cytopathogenic effect was used as the end point. The viabitlity of both HIV-and mock-infected cells was assessed spectrophotometrically via in situ reduction of 3-(4,5-dimethylthiazol-2-yl)-2,5-diphenyltetrazolium bromide (MTT). The 50% cytotoxic concentration (CC50 in μg/ml) was defined as the concentration of compound that reduced the absorbance of the mock-infected control sample by 50%. The percent protection achieved by the compound in HIV-infected cells was calculated by the following formula: Examples of inhibition of cell proliferation by particular compounds of formula (I) can be found by looking at the respective CC50 values in the MT-4 cell line. Cells: MT-4 cells (Miyoshi et al., 1982) were grown and maintained in RPMI 1640 medium supplemented with 10% heat-inactivated fetal calf serum, 2 mM […], 0.1% sodium bicarbonate, and 20 œg of gentamicin per ml.

Point of comparison: `COc1cccc(Nn2c(-c3ccccc3)c(C)[nH]c2=S)c1` [Compound 9.31], “cytotoxicity CC50” value 12.3 µg/mL. Against it:
- Cc1[nH]c(=S)n(Nc2cccc(Cl)c2)c1-c1cccc(C#N)c1 [Compound 9.32, 1-(3-Chlorphenylamino)-5-(3-cyanophenyl)-2,3-dihydro-4-methyl-1H-imidazole-2-thione] — 2.6-fold higher, 32.1 µg/mL
- Cc1ncn(Nc2cccc(Cl)c2)c1-c1cccc(C#N)c1 [Compound 13.15, 1-(3-Chlorphenylamino)-5-(3-cyanophenyl)-4-methyl-1H-imidazole] — within 1.5-fold, 10.9 µg/mL

Tested on: not listed separately
Test: Cytotoxicity in mock-infected MT-4 cells (MTT)
Assay type: cell-based
Settings: human; mock-infected MT-4 cells, absorbance reduced by 50%, MTT
Procedure: as §1

Point of comparison: `CCc1[nH]c(=S)n(Nc2cccc(C)c2)c1-c1ccccc1` [Compound 9.25, 2,3-Dihydro-4-ethyl-1-(3-methylphenylamino)-5-phenyl-1H-imidazole-2-thione], CC50 19.8 µg/mL (≈ 64 µM). Against it:
- Cc1cc(C)cc(Nn2c(-c3ccccc3)c(C)[nH]c2=S)c1 [Compound 9.30, 2,3-Dihydro-1-(3,5-dimethylphenylamino)-4-methyl-5-phenyl-1H-imidazole-2-thione] — 3.3-fold higher, 65.3 µg/mL (≈ 211 µM)
- Cc1ncn(Nc2cccc(Cl)c2)c1-c1ccccc1 [Compound 13.01, 1-(3-Chlorophenylamino)-4-methyl-5-phenyl-1H-imidazole] — 6.1-fold lower, 3.25 µg/mL (≈ 11.5 µM)
- Cc1ncn(Nc2cccc(Cl)c2)c1-c1cccc(Br)c1 [Compound 13.02, 5-(3-Bromophenyl)-1-(3-chlorophenylamino)-4-methyl-1H-imidazole] — 6.3-fold lower, 3.13 µg/mL (≈ 8.63 µM)
- Cc1ncn(Nc2cccc(Cl)c2)c1-c1cccc(Cl)c1 [Compound 13.03, 5-(3-Chlorophenyl)-1-(3-chlorophenylamino)-4-methyl-1H-imidazole] — within 1.5-fold, 14.7 µg/mL (≈ 46.2 µM)
- Cc1cccc(Nn2cnc(C)c2-c2ccccc2)c1 [Compound 13.09, 4-Methyl-1-(3-methylphenylamino)-5-phenyl-1H-imidazole] — 2.6-fold lower, 7.6 µg/mL (≈ 28.9 µM)

Tested on: HIV-2 (ROD)
Test: Inhibition of HIV-induced cytopathogenic effect in MT-4 cells (MTT), HIV-2
Assay type: cell-based
Settings: 50% protection against HIV-induced cytopathogenic effect, MT-4 cells, MTT
Procedure: (§2) A rapid and automated assay procedure was used for the in vitro evaluation of anti-HIV agents. An HTLV-1 transformed T4-cell line MT-4, which was previously shown to be highly susceptible to and permissive for HIV infection, served as the target cell line. Inhibition of the HIV-induced cytopathogenic effect was used as the end point. The viabitlity of both HIV-and mock-infected cells was assessed spectrophotometrically via in situ reduction of 3-(4,5-dimethylthiazol-2-yl)-2,5-diphenyltetrazolium bromide (MTT). The 50% cytotoxic concentration (CC50 in μg/ml) was defined as the concentration of compound that reduced the absorbance of the mock-infected control sample by 50%. The percent protection achieved by the compound in HIV-infected cells was calculated by the following formula:
(§3) [formula] whereby (ODT)HIV is the optical density measured with a given concentration of the test compound in HIV-infected cells; (ODC)HIV is the optical density measured for the control untreated HIV-infected cells; (ODC)MOCK is the optical density measured for the control untreated mock-infected cells; all optical density values were determined at 540 nm. The dose achieving 50% protection according to the above formula was defmed as the 50% inhibitory concentration (IC50 in μg/ml). The ratio of CC50 to IC50 was defined as the selectivity index (SI).
(§4) Cells: MT-4 cells (Miyoshi et al., 1982) were grown and maintained in RPMI 1640 medium supplemented with 10% heat-inactivated fetal calf serum, 2 mM 1-glutamine, 0.1% sodium bicarbonate, and 20 œg of gentamicin per ml.
(§5) Viruses: The HIV-1(NL4.3) strain (Adachi et al., 1986) is a molecular clone obtained from the National Institutes of Health (Bethesda, Md.). The HIV-2(ROD) (Barr,-Sinoussi et al., 1983) stock was obtained from culture supernatant of HIV-2 infected cell lines.

With `COc1cccc(Nn2c(-c3ccccc3)c(C)[nH]c2=S)c1` [Compound 9.31] the “HIV-2 (ROD) IC50” value was over 12.3 µg/mL.
With `Cc1[nH]c(=S)n(Nc2cccc(Cl)c2)c1-c1cccc(C#N)c1` [Compound 9.32, 1-(3-Chlorphenylamino)-5-(3-cyanophenyl)-2,3-dihydro-4-methyl-1H-imidazole-2-thione] the “HIV-2 (ROD) IC50” value was over 32.1 µg/mL.
In the case of `Cc1ncn(Nc2cccc(Cl)c2)c1-c1cccc(C#N)c1` [Compound 13.15, 1-(3-Chlorphenylamino)-5-(3-cyanophenyl)-4-methyl-1H-imidazole], the “HIV-2 (ROD) IC50” value is reported as over 10.9 µg/mL.

Same assay, conditions: Human immunodeficiency virus 2, MT4; 50% protection against HIV-induced cytopathogenic effect, MT-4 cells, MTT

Point of comparison: `Cc1ncn(Nc2cccc(Cl)c2)c1-c1cccc(Br)c1` [Compound 13.02, 5-(3-Bromophenyl)-1-(3-chlorophenylamino)-4-methyl-1H-imidazole], IC50 0.3 µg/mL (≈ 0.827 µM). Against it:
- CCc1[nH]c(=S)n(Nc2cccc(C)c2)c1-c1ccccc1 [Compound 9.25, 2,3-Dihydro-4-ethyl-1-(3-methylphenylamino)-5-phenyl-1H-imidazole-2-thione] — higher, > 19.8 µg/mL
- Cc1cc(C)cc(Nn2c(-c3ccccc3)c(C)[nH]c2=S)c1 [Compound 9.30, 2,3-Dihydro-1-(3,5-dimethylphenylamino)-4-methyl-5-phenyl-1H-imidazole-2-thione] — higher, > 65.3 µg/mL
- Cc1ncn(Nc2cccc(Cl)c2)c1-c1ccccc1 [Compound 13.01, 1-(3-Chlorophenylamino)-4-methyl-5-phenyl-1H-imidazole] — 1.7-fold higher, 0.5 µg/mL (≈ 1.76 µM)
- Cc1ncn(Nc2cccc(Cl)c2)c1-c1cccc(Cl)c1 [Compound 13.03, 5-(3-Chlorophenyl)-1-(3-chlorophenylamino)-4-methyl-1H-imidazole] — within 1.5-fold, 0.23 µg/mL (≈ 0.723 µM)
- Cc1cccc(Nn2cnc(C)c2-c2ccccc2)c1 [Compound 13.09, 4-Methyl-1-(3-methylphenylamino)-5-phenyl-1H-imidazole] — higher, > 7.6 µg/mL

Same assay, conditions: selectivity index = ratio of CC50 to IC50, HIV-2

For `CCc1[nH]c(=S)n(Nc2cccc(C)c2)c1-c1ccccc1` [Compound 9.25, 2,3-Dihydro-4-ethyl-1-(3-methylphenylamino)-5-phenyl-1H-imidazole-2-thione], the “HIV-2 (ROD) SI” value was under 1.
In the case of `Cc1cc(C)cc(Nn2c(-c3ccccc3)c(C)[nH]c2=S)c1` [Compound 9.30, 2,3-Dihydro-1-(3,5-dimethylphenylamino)-4-methyl-5-phenyl-1H-imidazole-2-thione], the “HIV-2 (ROD) SI” value is reported as under 1.
For `COc1cccc(Nn2c(-c3ccccc3)c(C)[nH]c2=S)c1` [Compound 9.31], the “HIV-2 (ROD) SI” value was under 1.
With `Cc1[nH]c(=S)n(Nc2cccc(Cl)c2)c1-c1cccc(C#N)c1` [Compound 9.32, 1-(3-Chlorphenylamino)-5-(3-cyanophenyl)-2,3-dihydro-4-methyl-1H-imidazole-2-thione] the “HIV-2 (ROD) SI” value was under 1.
With `Cc1cccc(Nn2cnc(C)c2-c2ccccc2)c1` [Compound 13.09, 4-Methyl-1-(3-methylphenylamino)-5-phenyl-1H-imidazole] the “HIV-2 (ROD) SI” value was under 1.
For `Cc1ncn(Nc2cccc(Cl)c2)c1-c1cccc(C#N)c1` [Compound 13.15, 1-(3-Chlorphenylamino)-5-(3-cyanophenyl)-4-methyl-1H-imidazole], the “HIV-2 (ROD) SI” value was under 1.

Point of comparison: `Cc1ncn(Nc2cccc(Cl)c2)c1-c1cccc(Br)c1` [Compound 13.02, 5-(3-Bromophenyl)-1-(3-chlorophenylamino)-4-methyl-1H-imidazole], “HIV-2 (ROD) SI” value 9.5. Against it:
- Cc1ncn(Nc2cccc(Cl)c2)c1-c1ccccc1 [Compound 13.01, 1-(3-Chlorophenylamino)-4-methyl-5-phenyl-1H-imidazole] — lower, 6.9
- Cc1ncn(Nc2cccc(Cl)c2)c1-c1cccc(Cl)c1 [Compound 13.03, 5-(3-Chlorophenyl)-1-(3-chlorophenylamino)-4-methyl-1H-imidazole] — higher, 63.8

Tested on: HIV-1 (NL4.3 WT)
Test: Inhibition of HIV-induced cytopathogenic effect in MT-4 cells (MTT), HIV-1
Assay type: cell-based
Settings: 50% protection against HIV-induced cytopathogenic effect, MT-4 cells, MTT
Procedure: as §2, §3, §4, §5

Point of comparison: `Cc1[nH]c(=S)n(Nc2cccc(Cl)c2)c1-c1cccc(C#N)c1` [Compound 9.32, 1-(3-Chlorphenylamino)-5-(3-cyanophenyl)-2,3-dihydro-4-methyl-1H-imidazole-2-thione], “HIV-1 (NL4.3 WT) IC50” value 13.8 µg/mL. Against it:
- COc1cccc(Nn2c(-c3ccccc3)c(C)[nH]c2=S)c1 [Compound 9.31] — 4.5-fold lower, 3.1 µg/mL
- Cc1ncn(Nc2cccc(Cl)c2)c1-c1cccc(C#N)c1 [Compound 13.15, 1-(3-Chlorphenylamino)-5-(3-cyanophenyl)-4-methyl-1H-imidazole] — 4.1-fold lower, 3.4 µg/mL

Same assay, conditions: Human immunodeficiency virus 1, MT4; 50% protection against HIV-induced cytopathogenic effect, MT-4 cells, MTT

Point of comparison: `CCc1[nH]c(=S)n(Nc2cccc(C)c2)c1-c1ccccc1` [Compound 9.25, 2,3-Dihydro-4-ethyl-1-(3-methylphenylamino)-5-phenyl-1H-imidazole-2-thione], IC50 3.9 µg/mL (≈ 12.6 µM). Against it:
- Cc1cc(C)cc(Nn2c(-c3ccccc3)c(C)[nH]c2=S)c1 [Compound 9.30, 2,3-Dihydro-1-(3,5-dimethylphenylamino)-4-methyl-5-phenyl-1H-imidazole-2-thione] — 13-fold lower, 0.3 µg/mL (≈ 0.969 µM)
- Cc1ncn(Nc2cccc(Cl)c2)c1-c1ccccc1 [Compound 13.01, 1-(3-Chlorophenylamino)-4-methyl-5-phenyl-1H-imidazole] — 7.8-fold lower, 0.5 µg/mL (≈ 1.76 µM)
- Cc1ncn(Nc2cccc(Cl)c2)c1-c1cccc(Br)c1 [Compound 13.02, 5-(3-Bromophenyl)-1-(3-chlorophenylamino)-4-methyl-1H-imidazole] — 7.8-fold lower, 0.5 µg/mL (≈ 1.38 µM)
- Cc1ncn(Nc2cccc(Cl)c2)c1-c1cccc(Cl)c1 [Compound 13.03, 5-(3-Chlorophenyl)-1-(3-chlorophenylamino)-4-methyl-1H-imidazole] — 20-fold lower, 0.2 µg/mL (≈ 0.629 µM)
- Cc1cccc(Nn2cnc(C)c2-c2ccccc2)c1 [Compound 13.09, 4-Methyl-1-(3-methylphenylamino)-5-phenyl-1H-imidazole] — 2.8-fold lower, 1.4 µg/mL (≈ 5.32 µM)

Same assay, conditions: selectivity index = ratio of CC50 to IC50, HIV-1

Point of comparison: `Cc1ncn(Nc2cccc(Cl)c2)c1-c1cccc(Br)c1` [Compound 13.02, 5-(3-Bromophenyl)-1-(3-chlorophenylamino)-4-methyl-1H-imidazole], “HIV-1 (NL4.3 WT) SI” value 6.7. Against it:
- CCc1[nH]c(=S)n(Nc2cccc(C)c2)c1-c1ccccc1 [Compound 9.25, 2,3-Dihydro-4-ethyl-1-(3-methylphenylamino)-5-phenyl-1H-imidazole-2-thione] — lower, 5.0
- Cc1cc(C)cc(Nn2c(-c3ccccc3)c(C)[nH]c2=S)c1 [Compound 9.30, 2,3-Dihydro-1-(3,5-dimethylphenylamino)-4-methyl-5-phenyl-1H-imidazole-2-thione] — higher, 241.9
- COc1cccc(Nn2c(-c3ccccc3)c(C)[nH]c2=S)c1 [Compound 9.31] — lower, 4.0
- Cc1[nH]c(=S)n(Nc2cccc(Cl)c2)c1-c1cccc(C#N)c1 [Compound 9.32, 1-(3-Chlorphenylamino)-5-(3-cyanophenyl)-2,3-dihydro-4-methyl-1H-imidazole-2-thione] — lower, 2.3
- Cc1ncn(Nc2cccc(Cl)c2)c1-c1ccccc1 [Compound 13.01, 1-(3-Chlorophenylamino)-4-methyl-5-phenyl-1H-imidazole] — lower, 6.0
- Cc1ncn(Nc2cccc(Cl)c2)c1-c1cccc(Cl)c1 [Compound 13.03, 5-(3-Chlorophenyl)-1-(3-chlorophenylamino)-4-methyl-1H-imidazole] — higher, 73.5
- Cc1cccc(Nn2cnc(C)c2-c2ccccc2)c1 [Compound 13.09, 4-Methyl-1-(3-methylphenylamino)-5-phenyl-1H-imidazole] — lower, 5.6
- Cc1ncn(Nc2cccc(Cl)c2)c1-c1cccc(C#N)c1 [Compound 13.15, 1-(3-Chlorphenylamino)-5-(3-cyanophenyl)-4-methyl-1H-imidazole] — lower, 3.2
